The Kinase Knowledgebase extract (Sharma et al. 2016)
pIC50, pKi: −log10 of the molar value.

Experiments:
[1] = biological target: EGFR (human) (UniProt P00533); conditions: A431
[2] = biological target: EGFR (mouse) (UniProt P00533); conditions: balb/mk cells
[3] = biological target: EGFR (human) (UniProt P00533); conditions: a431
[4] = biological target: EGFR (human) (UniProt P00533); conditions: for inhibition: a431, concentration not given here
[5] = biological target: EGFR (UniProt P00533)
Chain of EGFR (P00533 whole entry, looked up): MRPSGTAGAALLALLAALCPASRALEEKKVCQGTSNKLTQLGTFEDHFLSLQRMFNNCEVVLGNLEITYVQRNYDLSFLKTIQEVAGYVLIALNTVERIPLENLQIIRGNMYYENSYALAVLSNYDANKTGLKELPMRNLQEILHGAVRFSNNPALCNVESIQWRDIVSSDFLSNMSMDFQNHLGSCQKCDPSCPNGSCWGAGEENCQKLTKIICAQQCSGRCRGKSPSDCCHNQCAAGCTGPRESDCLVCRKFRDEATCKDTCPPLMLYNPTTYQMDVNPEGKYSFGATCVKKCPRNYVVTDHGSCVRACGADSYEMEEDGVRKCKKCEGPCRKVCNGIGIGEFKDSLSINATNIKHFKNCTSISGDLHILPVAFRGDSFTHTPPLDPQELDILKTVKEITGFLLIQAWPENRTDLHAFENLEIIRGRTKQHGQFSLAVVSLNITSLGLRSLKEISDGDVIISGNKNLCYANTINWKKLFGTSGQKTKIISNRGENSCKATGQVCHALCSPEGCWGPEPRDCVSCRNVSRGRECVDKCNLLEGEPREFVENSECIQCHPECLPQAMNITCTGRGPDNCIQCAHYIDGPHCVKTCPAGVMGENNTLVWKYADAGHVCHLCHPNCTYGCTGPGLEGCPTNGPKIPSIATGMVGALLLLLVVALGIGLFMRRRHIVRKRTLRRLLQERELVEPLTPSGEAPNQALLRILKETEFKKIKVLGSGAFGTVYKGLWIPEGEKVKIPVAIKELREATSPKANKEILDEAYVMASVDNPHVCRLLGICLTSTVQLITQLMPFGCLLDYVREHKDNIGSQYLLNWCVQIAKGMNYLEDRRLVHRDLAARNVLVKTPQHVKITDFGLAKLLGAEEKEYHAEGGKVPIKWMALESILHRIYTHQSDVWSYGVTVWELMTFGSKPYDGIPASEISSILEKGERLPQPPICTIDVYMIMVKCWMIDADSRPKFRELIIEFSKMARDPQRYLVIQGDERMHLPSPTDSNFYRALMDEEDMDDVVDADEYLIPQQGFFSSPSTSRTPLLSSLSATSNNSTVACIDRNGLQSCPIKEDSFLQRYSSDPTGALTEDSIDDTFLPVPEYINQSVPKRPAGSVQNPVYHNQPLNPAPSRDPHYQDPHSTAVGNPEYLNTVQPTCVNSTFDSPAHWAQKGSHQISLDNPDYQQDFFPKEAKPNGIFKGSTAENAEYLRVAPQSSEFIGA

[6] = biological target: EGFR (UniProt P00533); remark: listed apart in the source
[7] = biological target: EGFR (human) (UniProt P00533); conditions: A431; remark: listed apart in the source
[8] = biological target: EGFR (UniProt P00533); remark: listed apart in the source

Chain of EGFR (human) (P00533 whole entry, looked up): as above

| SMILES | pIC50 [1] | pIC50 [2] | pIC50 [3] | inhibition [4] [%] | also measured |
| --- | --- | --- | --- | --- | --- |
| C=C(C)CN1C(=O)C(OS(=O)(=O)O)SC1=NN=C1SCC(=O)N1C (centres undefined) | 4.00 | < 4.30 | < 4.30 | 0 | – |
| CCOc1cc(/C=C(/C#N)C(N)=O)cc(Cc2ccccc2)c1O | 5.05 | – | – | – | pIC50 [5]: 6.00; pKi [5]: 5.68 |
| O=CN/C=C/c1cc(O)ccc1O | 4.90 | – | – | – | pKi [6]: 5.22 |
| C=C(C)CN1C(=O)C(=C)SC1=NN=C1SCC(=O)N1C | 6.00 | 6.00 | 5.81 | – | pIC50 [7]: 5.30; pIC50 ([4]; a431): 4.60 to 4.90 |
| C=C(C)CN1C(=O)CSC1=NN=C1SCC(=O)N1C | < 4.30 | < 4.30 | < 4.30 | 0 | – |
| N#CC(C#N)=Cc1cc(O)cc(O)c1 | 4.38 | – | – | – | pIC50 [8]: 4.46; pKi [8]: 4.96 |
| CC(=S)N/C(C#N)=C/c1ccc(O)c(O)c1 | – | – | – | – | pIC50 [8]: 5.62; pKi [8]: 6.07 |

Further lines, with some results ahead:

| pIC50 [1] | pIC50 [2] | pIC50 [3] | inhibition [4] [%] | SMILES | also measured |
| --- | --- | --- | --- | --- | --- |
| < 4.30 | < 4.30 | 4.39 | 0 | C=C(C)CN1C(=O)C(CO)SC1=NN=C1SCC(=O)N1C (centres undefined) | – |
| 5.22 | 5.99 | 5.82 | – | C=CCN1C(=O)C(=C)SC1=NN=C1SCC(=O)N1C | – |
| < 4.00 | < 4.30 | < 4.30 | 0 | C=CCN1C(=O)C(CC(=O)O)SC1=NN=C1SCC(=O)N1C (centres undefined) | – |
| < 4.00 | < 4.30 | < 4.30 | 0 | C=C(C)CN1C(=O)C(O)SC1=NN=C1SCC(=O)N1C (centres undefined) | – |
| < 4.30 | < 4.30 | < 4.30 | 0 | C=CCN1C(=O)C(C)SC1=NN=C1SCC(=O)N1C (centres undefined) | – |
| < 4.30 | < 4.30 | < 4.30 | 0 | C=C(C)CN1C(=O)C(C)SC1=NN=C1SCC(=O)N1C (centres undefined) | – |
| 5.70 | 6.01 | 5.79 | – | C=C(C)CN1C(=O)C(CN(C)C)SC1=NN=C1SCC(=O)N1C (centres undefined) | – |
